# Key:
# MIA-PACA-2 cells = assay: Viability of PDAC MIA-PACA-2 cells treated alone and in combination for 5 days; synergy score by SynergyFinder.org; type: cell-based; conditions: MIA-PACA-2, single agent, 5 days (FIG. 2)
# Text: Synergy scores can be interpreted as the average excess response due to drug interactions. Synergy scores close to 0 give limited confidence in synergy or antagonism. So, when the synergy scores are: less than −10, the interaction between two drugs is likely to be antagonistic. From −10 to 10, the interaction between two drugs is likely to be additive. Greater than 10, the interaction between two drugs is likely to be synergistic.
# Pancreatic ductal adenocarcinoma (PDAC) MIA-PACA-2 cells were treated with increasing concentrations of Olaparib and the Omomyc peptide sequence SEQ ID NO: 4 alone and in combination, for 5 days.
# Then synergy score was calculated by SynergyFinder.org after having carried out 3 biological replicates as described above.
# [1] = tested on: SUM149 cell-derived xenograft (CDX); assay: SUM149 cell-derived xenograft (CDX) model, orthotopic in mammary fat-pad, tumour growth; type: in vivo; conditions: SUM149 CDX mice, 4 weeks; Omomyc 50 mg/kg intravenous once a week; Olaparib 50 mg/kg oral gavage 6 times a week; preliminary
# Protocol: SUM149 cell-derived xenograft (CDX) model mice were used for in vivo studies. Each mouse was inoculated orthotopically in the mammary fat-pad with 5 million cells. As the tumours reached 100 mm^3, mice were randomised in 4 treatment groups. Specifically, mice were treated with Omomyc once a week (50 mg/kg, intravenous), with Olaparib 6 times a week (50 mg/kg oral gavage), with the combination of the 2 drugs (combo) or with vehicle alone for 4 weeks. Relative volume was calculated as a percentage of tumour growth from the day of randomization and beginning of treatments. At end-point the average of the groups were respectively: vehicle 901.8%, Omomyc 663.6%, Olaparib 623.6%, and combination 335.8%.
structure (smiles),measurement,setting,value
"O=C(c1cc(Cc2n[nH]c(=O)c3ccccc23)ccc1F)N1CCN(C(=O)C2CC2)CC1 [Olaparib, reference compound]",sensitivity of the cell line to the single agent (viability),MIA-PACA-2 cells,particularly resistant
same,"Relative volume, percentage of tumour growth from the day of randomization (group average at end-point)",[1],623.6%
